# US12037324B2, “Biarylmethyl heterocycles” (Université de Montréal, priority 2016, dated 2024)
# Tests used:
# AGTR1 [1] = target: T1, AGTR1 (Homo sapiens, UniProt P30556); assay: DiscoveRx β-arrestin2 recruitment assay (enzyme complementation, Pathunter CHO-K1 AGTR1 β-arrestin cell line); assay type: cell-based; settings: DiscoveRx β-arrestin2 recruitment; for DiscoveRx β-arrestin2 Ymax (%): maximal response
# T1 construct: host or cells: Pathunter CHO-K1 AGTR1 β-arrestin cell line (CHO-K1)
# T1 sequence (P30556 1-359): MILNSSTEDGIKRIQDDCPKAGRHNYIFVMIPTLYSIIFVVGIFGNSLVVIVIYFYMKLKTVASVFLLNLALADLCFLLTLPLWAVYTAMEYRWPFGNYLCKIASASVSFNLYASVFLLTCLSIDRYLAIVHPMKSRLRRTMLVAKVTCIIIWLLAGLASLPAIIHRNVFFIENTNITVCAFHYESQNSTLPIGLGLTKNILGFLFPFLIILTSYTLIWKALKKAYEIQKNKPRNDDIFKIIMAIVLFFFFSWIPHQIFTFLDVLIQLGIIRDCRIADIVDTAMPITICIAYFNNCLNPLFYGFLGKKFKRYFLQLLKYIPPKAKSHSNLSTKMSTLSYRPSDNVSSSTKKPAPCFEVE
# Procedure, shortened: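 Chemiluminescent enzyme-complementation read-out of β-arrestin2 recruitment to AGTR1 in engineered CHO-K1 cells after 90 min compound exposure at 37° C. Values are 4-parameter logistic EC50s in agonist mode, IC50s in antagonist mode, with efficacy relative to the maximal All response.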
# AGTR1 [2] = target: T1, AGTR1; assay: DiscoveRx IP1 accumulation assay (HTRF), agonist mode, Pathunter CHO-K1 AGTR1 β-arrestin cell line; assay type: cell-based; settings: for EC50: read-out: IP-1 EC50
# Procedure, shortened: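 Agonist mode in CHO-K1 AGTR1 β-arrestin cells plated 14-16 h before; compounds at varying concentrations for 90 min at 37° C, IP1 accumulation read by HTRF (D2-conjugate and anti-IP1 cryptate, 20 min room temperature). EC50 from 4-parameter logistic fit; activity given as percentage of maximal AII effect.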
# hAT1R [3] = target: T2, hAT1R (Homo sapiens, UniProt P30556); assay: BRET β-arrestin2 biosensor assay, higher receptor expression (hAT1R 5 ng/well), HEK293 cells; assay type: cell-based; settings: for EC50: High AT1R Expression
# T2 sequence (P30556 1-359): T1 sequence (P30556 1-359)
# hAT1R [4] = target: T2, hAT1R; assay: cell-based
# hAT1R [5] = target: T2, hAT1R; assay: cell-based; settings: agonist mode; for EC50: read-out: BRET P63 EC50
# [6] = section of the 42nd table ending at r951, example numbering restarts after the DiscoveRx section, read-out: β-arrestin2 EC50
# [7] = Low AT1R Expression, read-out: BRET β-Arrestin2 Low AT1R Expression EC50
SMILES,EC50 (AGTR1 [1]) [µM],DiscoveRx β-arrestin2 Ymax (%) (AGTR1 [1]),IP-1 Ymax (%) (AGTR1 [2]),EC50 (AGTR1 [2]) [µM],BRET β-Arrestin2 High AT1R Expression Ymax (%) (hAT1R [3]),EC50 (hAT1R [3]) [µM],EC50 (hAT1R [4]; [6]) [µM],BRET P63 Ymax (hAT1R [5]) [%],EC50 (hAT1R [5]) [µM],BRET β-Arrestin2 Low AT1R Expression Ymax (%) (hAT1R [4]; Low AT1R Expression),EC50 (hAT1R [4]; [7]) [µM]
"CCc1nc2c(C)cc(C)nc2n1Cc1ccc(-c2cc(-c3cccc(C)c3)ccc2-c2nnn[nH]2)nc1 [Example 175, 2-ethyl-5,7-dimethyl-3-((6-(3′-methyl-4-(1H-tetrazol-5-yl)biphenyl-3-yl)pyridin-3-yl)methyl)-3H-imidazo[4,5-b]pyridine]",0.006,37.0,24.1,0.0128,93.0,0.0052,0.0107,12.4,0.0211,–,–
"CCc1nc2c(C)cc(C)nc2n1Cc1ccc(-c2cc(-c3cn(CC)nn3)ccc2-c2nnn[nH]2)cc1 [Example 234, 2-Ethyl-3-((5′-(1-ethyl-1H-1,2,3-triazol-4-yl)-2′-(1H-tetrazol-5-yl)-[1,1′-biphenyl]-4-yl)methyl)-5,7-dimethyl-3H-imidazo[4,5-b]pyridine]",0.0092,59.9,18.8,0.0193,93.3,0.0034,0.0122,37.1,0.0282,–,–
CCc1nc2c(C)cc(C)nc2n1Cc1ccc(-c2cc(-c3nccs3)ccc2-c2nn[nH]n2)cc1 [Example 56],0.0583,20.8,–,> 100,63.0,0.0489,–,4.0,0.0426,14.2,0.054
"CCc1nc2c(C)cc(C)nc2n1Cc1ccc(-c2cc(-c3ccccn3)ccc2-c2nn[nH]n2)cc1 [Example 30, 2-Ethyl-5,7-dimethyl-3-((5′-(pyridin-2-yl)-2′-(2H-tetrazol-5-yl)-[1,1′-biphenyl]-4-yl)methyl)-3H-imidazo[4,5-b]pyridine]",0.0049,48.0,12.3,0.0159,87.5,0.0056,–,23.5,0.0191,72.9,0.0145
CCc1nc2c(C)cc(C)nc2n1Cc1ccc(-c2cc(-c3ccc(CO)cc3)ccc2-c2nn[nH]n2)cc1 [Example 63],0.0102,26.1,21.4,0.0513,76.6,0.0075,–,12.4,0.0232,59.3,0.0265
CCc1nc2c(C)cc(C)nc2n1Cc1ncc(-c2cc(-c3ccccc3)ccc2-c2nnn[nH]2)cn1 [Example 190],0.138,57.0,17.5,0.485,88.8,0.0836,0.154,16.4,0.432,–,–
CCc1nc2c(C)cc(C)nc2n1Cc1ccc(-c2cc(N3CCCC(F)(F)C3)ccc2-c2nn[nH]n2)cc1 [Example 83],0.0239,40.5,9.0,0.0269,87.3,0.0521,–,8.2,0.0548,43.1,0.152
CCCc1cn(-c2ccc(-c3nnn[nH]3)c(-c3ccc(Cn4c(CC)nc5c(C)cc(C)nc54)cc3)c2)nn1 [Example 228],0.0304,32.1,13.0,0.147,93.1,0.0319,0.21,11.4,0.125,–,–
"CCCCC1=NC2(CCOC2)C(=O)N1Cc1ccc(-c2cc(-c3ccccc3)ccc2-c2nnn[nH]2)cc1 (single isomer, unassigned) [Example 147, 3-((6′-(1H-tetrazol-5-yl)-[1,1′:3′,1″-terphenyl]-4-yl)methyl)-2-butyl-7-oxa-1,3-diazaspiro[4.4]non-1-en-4-one]",0.107,23.0,3.6,0.178,66.6,0.127,–,–,> 100,26.1,0.109
"CCc1nc2c(C)cc(C)nc2n1Cc1ccc(-c2cc(-c3ccccc3)ccc2-c2nnn[nH]2)nc1 [Example 176, 3-((6-(4-(1H-tetrazol-5-yl)-[1,1′-biphenyl]-3-yl)pyridin-3-yl)methyl)-2-ethyl-5,7-dimethyl-3H-imidazo[4,5-b]pyridine]",0.0318,32.0,9.8,0.0489,79.1,0.0255,0.0306,–,> 100,–,–
CCCCC1=NC2(CCCC2)C(=O)N1Cc1ccc(-c2cc(-c3cc(C)ccn3)ccc2-c2nn[nH]n2)cc1 [Example 139],0.0105,50.1,16.8,0.0192,95.0,0.0112,–,20.6,0.0344,83.5,0.0414
CCCCC1=NC2(CCCC2)C(=O)N1Cc1ccc(-c2cc(-c3cc(OC)ccn3)ccc2-c2nn[nH]n2)cc1 [Example 141],0.0135,31.5,–,> 100,88.6,0.01,–,14.9,0.0133,58.9,0.0404
CCc1nc2c(C)cc(C)nc2n1Cc1ccc(-c2cc(Oc3cncc(C)c3)ccc2-c2nn[nH]n2)cc1 [Example 260],0.0517,36.4,18.5,0.175,87.9,0.0078,0.0499,–,> 100,–,–
CCc1nc2c(C)cc(C)nc2n1Cc1ccc(-c2cc(-c3cn(CCO)nn3)ccc2-c2nnn[nH]2)cc1 [Example 235],0.0566,56.0,14.9,0.213,89.5,0.0296,0.129,17.7,0.161,–,–
